According to PMC10906223 (JCI Insight, 2024):
Values joined by “and” are separate entries in the source; they are usually repeats but may differ in a detail not shown here. Identical values can stand only once.

What was measured:
[1] = tested on: α cells of NOD mice islets; test: EphA4 signal in α cells of pancreatic slices of NOD mice; format: in vivo, mouse; conditions: WCDD301-treated NOD mice; diabetic 12.64 ± 1.12, nondiabetic 18.62 ± 1.09
Description: Pancreata of NOD mice (females, n = 3 per group) from nondiabetic, diabetic placebo-treated, and diabetic WCDD301-treated cohorts were excised; fixed in 10% buffered formalin for 5 days; and treated with ethanol 70% for 2 days before paraffin embedding. The paraffin-embedded tissue blocks were longitudinally sectioned in 5 μm slices and fixed on microscope slides. Following deparaffinization (through incubation in graded xylene, graded ethanol, and PBS), permeabilization (using 0.1% Triton X-100 in PBS), and background blocking (using 5% BSA solution containing 0.1% Tween 20), samples were incubated with primary antibodies (mouse anti-glucagon, Abcam, catalog ab10988; above-mentioned rabbit anti-EphA4), secondary antibodies (goat anti-mouse IgG Alexa Fluor 488; Invitrogen, catalog A-11001; goat anti-rabbit IgG Alexa Fluor 633, Invitrogen, catalog A-21070), SPY555-Actin (Cytoskeleton, catalog SC202), and DAPI. Image acquisition and analysis were performed as for dispersed islet cells. […] ROIs were manually drawn around each islet, background signal was removed by thresholding, and intensity of glucagon signal was determined and normalized by the islet surface area. To determine sizes of α cells per islet, ROIs were manually drawn around α cells in each islet. […]

diabetic NOD mice [2] = test: Plasma glucagon in NOD mice after treatment; format: in vivo, mouse; set-up: Plasma glucagon: unit not given beside the values
Description: (§1) Terminal blood was collected into microfuge tubes containing K2-EDTA (supplemented by 45 mM phenylmethylsulphonyl fluoride and 0.77 μM aprotinin) through cardiac puncture. Plasma was separated by centrifugation (2,000g for 10 minutes at 4°C) and kept at –80°C until analysis. Plasma samples with hemolysis were excluded from the study. […] Values of BUN, creatinine, ALB, ALT, and AST were determined by a Roche Cobas C501 Autoanalyzer as performed by the Washington University Diabetes Research Center Translational Diagnostics Core. Reference intervals of blood chemistry parameters for inbred NOD mice were extracted from the Mouse Phenome Database (https://phenome.jax.org/).

[3] = tested on: human donor dispersed islet cells; test: Glucagon secretion from healthy human donor dispersed islet cells; format: cell-based; set-up: Glucagon secretion: unit not given here
Description: (§2) Pancreata of nondiabetic C57BL/6J mice were digested using collagenase P (Roche Diagnostics, catalog 11213873001), and islets were manually picked up using a stereomicroscope (ZEISS Stemi 305). […] Isolated mouse islets or provided human islets were dispersed as described ([28]). Briefly, 100–120 islets were washed 2 times using modified HBSS, then dispersed in 600 μL Accutase (Innovative Cell Technologies, catalog AT-104) by gently pipetting up and down for 7 minutes at 37°C. […] Following refreshing of KRBH, cells were dispensed in 8 microfuge tubes (2,000 cells/tube) and treated with WCDD301, preclustered Ephrin-A5 Fc, or preclustered Fc in the presence or absence of the competitive inhibitor of EphA4 receptor, rhyncophylline ([60]) (MilliporeSigma, catalog SML2345). In the presence or absence of these effectors, secretion assay was performed sequentially as shown in Supplemental Table 5. […] Preclustering of Ephrin-A5 Fc was done by mixing Ephrin-A5 Fc or Fc alone (BioLegend, catalog 790102) with anti-Fc antibody (Invitrogen, catalog A16086) (1:10 molar ratio) 20 minutes before treatment ([62]). […] Shedding of cleaved EphA4 was measured from the cell culture medium. Experiments were performed by dispersion of 200 islets, and EphA4 levels in media were measured by EphA4 ELISA (ABclonal, catalog RK06572).
The Integrated Islet Distribution Program provided us human donor islets with their characteristics (Supplemental Table 6). Islets were centrifuged at 500g for 3 minutes, resuspended in CMRL 1066 medium (Gibco, catalog 1150-037) containing 11 mM glucose, and rested in an incubator overnight.
For the hormone secretion assay, islets or dispersed islet cells were adapted in KRBH buffer containing 11 mM glucose for 1 hour. Then, after 2 washes in HBSS containing 11 mM glucose, islets or cells were treated in the following sequential order in the presence or absence of WCDD301: incubation in KRBH (1 mM glucose, 30 minutes) followed by medium collection, incubation in KRBH (11 mM glucose, 30 minutes) followed by medium collection.

diabetic NOD mice [4] = test: Plasma somatostatin in NOD mice; format: in vivo, mouse; set-up: unit not given beside the values; conditions: WCDD301 group of NOD mice; quantity not given
Description: as §1

[5] = tested on: murine dispersed islet cells; test: Insulin secretion from murine dispersed islet cells; format: cell-based, mouse; conditions: for Relative secretion of insulin: one value per mouse
Description: as §2

For `CC(=O)OCC(N)(COC(C)=O)COC(C)=O` [WCDD301, 2-(acetoxymethyl)-2-aminopropane-1,3-diyl diacetate], the “EphA4 signal within α cells” value [1] was 21.84 ± 1.14 AU, the Plasma glucagon (diabetic NOD mice [2]; WCDD301-treated diabetic NOD mice, per mouse, Figure 6B) was 22.15 and 11 and 44 and 25 and 47 and the “Effect on plasma glucagon” value (diabetic NOD mice [2]; diabetic NOD mice) was “suppression of glucagon levels”. For the same compound, the “Effect on glucagon secretion” value ([3]; 1, 3 or 6 hours exposure, 1 mM and 11 mM glucose) was “dose-dependent and time-dependent suppression of glucagon secretion”, the Glucagon secretion ([3]; 1 hour exposure, WCDD301 0.75 µM, 1 mM (first group), Figure 2A) was 48.0 and 44.0 and 43.0 and the Glucagon secretion ([3]; 1 hour exposure, WCDD301 0.75 µM, head printed 1 mM (second group c4-c7), Figure 2A) was 55.8 and 56.2 and 53.0. For the same compound, the Glucagon secretion ([3]; 1 hour exposure, WCDD301 1.5 µM, 1 mM (first group), Figure 2A) was 41.5 and 42.9 and 40.0, the Glucagon secretion ([3]; 1 hour exposure, WCDD301 1.5 µM, head printed 1 mM (second group c4-c7), Figure 2A) was 50.8 and 55.7 and 48.0 and the Glucagon secretion ([3]; 1 hour exposure, WCDD301 3 µM, 1 mM (first group), Figure 2A) was 40.5 and 41.8 and 38.0. For the same compound, the Glucagon secretion ([3]; 1 hour exposure, WCDD301 3 µM, head printed 1 mM (second group c4-c7), Figure 2A) was 49.7 and 48.4 and 44.0, the Glucagon secretion ([3]; 3 hours exposure, WCDD301 0.75 µM, 1 mM (first group), Figure 2B) was 41.6 and 44.5 and 43.0 and the Glucagon secretion ([3]; 3 hours exposure, WCDD301 0.75 µM, head printed 1 mM (second group c4-c7), Figure 2B) was 66.0 and 60.4 and 68.0. For the same compound, the Glucagon secretion ([3]; 3 hours exposure, WCDD301 1.5 µM, 1 mM (first group), Figure 2B) was 44.9 and 42.7 and 41.0, the Glucagon secretion ([3]; 3 hours exposure, WCDD301 1.5 µM, head printed 1 mM (second group c4-c7), Figure 2B) was 58.5 and 55.8 and 60.0 and the Glucagon secretion ([3]; 3 hours exposure, WCDD301 3 µM, 1 mM (first group), Figure 2B) was 42.4 and 42.3 and 41.0. The Glucagon secretion ([3]; 3 hours exposure, WCDD301 3 µM, head printed 1 mM (second group c4-c7), Figure 2B) was 66.8 and 54.9 and 52.0, the Glucagon secretion ([3]; 6 hours exposure, WCDD301 0.75 µM, 1 mM (first group), Figure 2C) was 42.9 and 40.6 and 44.0 and the Glucagon secretion ([3]; 6 hours exposure, WCDD301 0.75 µM, head printed 1 mM (second group c4-c7), Figure 2C) was 67.1 and 76.1 and 81.0. For the same compound, the Glucagon secretion ([3]; 6 hours exposure, WCDD301 1.5 µM, 1 mM (first group), Figure 2C) was 42.5 and 46.0 and 43.0, the Glucagon secretion ([3]; 6 hours exposure, WCDD301 1.5 µM, head printed 1 mM (second group c4-c7), Figure 2C) was 67.6 and 68.1 and 62.0 and the Glucagon secretion ([3]; 6 hours exposure, WCDD301 3 µM, 1 mM (first group), Figure 2C) was 39.8 and 39.3 and 37.0. For the same compound, the Glucagon secretion ([3]; 6 hours exposure, WCDD301 3 µM, head printed 1 mM (second group c4-c7), Figure 2C) was 56.5 and 55.1 and 50.0, the “Plasma somatostatin (Figure 7C)” value (diabetic NOD mice [4]) was 310.49 and 318.85 and 327.2 and 342.5 and the “Relative secretion of insulin” value ([5]; 301 (1.5 µM), Glucose (1 mM), Figure 1G) was 0.28 and 0.38 and 0.3 and 0.32 and 0.23. For the same compound, the “Relative secretion of insulin” value ([5]; 301 (1.5 µM), Glucose (11 mM), Figure 1G) was 1.22 and 1.05 and 0.8 and 0.98 and 1.49, the “Relative secretion of insulin” value ([5]; 301 (3 µM), Glucose (1 mM), Figure 1G) was 0.49 and 0.38 and 0.4 and 0.28 and 0.53 and the “Relative secretion of insulin” value ([5]; 301 (3 µM), Glucose (11 mM), Figure 1G) was 0.67 and 1.1 and 0.98 and 1.25 and 0.63. For the same compound, the “Effect on insulin secretion” value ([5]; Figure 1G) was “without significant effects” and the “Effect on insulin secretion in presence of rhyncophylline” value ([5]; WCDD301 3 μM, Supplemental Figure 3) was “no significant effect on insulin secretion”.
